Values joined by “and” are separate entries in the source; they are usually repeats but may differ in a detail not shown here. Equal entries are not always repeated. Peptide text beside a SMILES is read from it.
Assays:
[1] = tested on: E. coli clones having mutations in two regions of the PTC in the 23S rRNA (modified ribosomes); assay: Inhibition of cell growth by dipeptidyl-puromycin aminonucleoside 1 (selection of modified ribosomes); assay type: cell-based; conditions: 100 μg/mL 1
Method: Selection of Modified Ribosomes using Dipeptidyl-puromycin Aminonucleoside The selection experiments were carried on in a fashion similar to that described previously. (1) Briefly, library from 419 clones, having mutations in two regions of the PTC in the 23S rRNA (2057-2063 and 2496-2501 or 2502-2507) and organized in five 96 well plates (“master plates”), were used for selection of variants with modified ribosome. Three new plates were prepared for each “master plate” by transferring 2 μL of culture from each well of the master plate to the corresponding well of new plate and 98 μL assay solution was added to each well.
A solution without any puromycin derivative was used for control plate. All plates were incubated at 37° C. for 16-18 h in a thermostated shaker, and extent of cell growth was estimated by measuring the optical density at 600 nm. Inhibition of cell growth by 1 was estimated as described in previously. Clones with inhibition value more than 50% were taken for verification. […] Plates were incubated at 37° C. for 16-18 h in a thermostated shaker, extent of cell growth was estimated by measuring the optical density at 600 nm and IC50 data was calculated for each culture.
It was anticipated that the ribosomes of those clones which show sensitivity for 1 would be more likely to accommodate dipeptides or dipeptidomimetics in the PTC during peptide synthesis. […] Plasmids from these clones were isolated and sequenced.

[2] = tested on: modified ribosomes from clone 010326R6; assay: In vitro translation: suppression of TAG codon at position 66 of GFP (pETGFP66), S-30 from clone 010326R6; assay type: biochemical, Escherichia coli
Method: (§1) In vitro Protein Translation. Protein translation reactions were carried out in 12-2000 μL of incubation mixture containing 0.4 μL/μL of S-30 system, 100 ng/μL of plasmid, 35 mM Tris acetate, pH 7.4, 190 mM potassium glutamate, 30 mM ammonium acetate, 2 mM DTT, 0.2 mg/mL total E. coli tRNA, 3.5% PEG 6000, 20 μg/mL folinic acid, 20 mM ATP and GTP, 5 mM CTP and UTP, 100 μM amino acids mixture, 0.5 μCi/μL of ^35S-methionine for analytical purposes only and 1 μg/mL rifampicin. In the case of plasmids having a gene with a TAG codon, a suppressor tRNA was added to a concentration of 0.8 μg/μL. Reactions were carried out at 37° C. for 1 h (for 12 μL reaction mixtures) to 1.5 h (for 2000 μL reaction mixtures) and terminated by chilling on ice. Aliquots from in vitro translation mixtures were analyzed by SDS-PAGE followed by quantification of the radioactive bands by phosphorimager analysis.
The free amino acids both have λex in the range 296-302 nm but the λem of 7 is somewhat red-shifted compared to that of 6. […] As a negative control, wild-type GFP synthesis from the modified mRNA in the presence of nonacylated tRNACUA was measured for each experiment. The amounts of GFP produced were quantified with a phosphoimager, which monitored the incorporation of ^35S-methionine into proteins. […]

[3] = tested on: modified ribosomes (23S rRNA modified); assay: In vitro translation: suppression of UAG codon at position 10 of DHFR mRNA, S-30 systems having modified ribosomes; assay type: biochemical, E. coli; conditions: for Suppression efficiency in different S-30 systems, having modified ribosomes (%): position 10 of E. coli DHFR, relative to wild-type DHFR = 100
Method: Preparation of Aminoacyl-tRNACUAs. The activation of suppressor tRNACUAs was carried out as described previously.^4,5 Briefly, 100-μL reaction mixture of 100 mM Na Hepes, pH 7.5, contained 1.0 mM ATP, 15 mM MgCl2, 100 μg of suppressor tRNACUA-COH, 0.5 A260 unit of N-pentenoyl-protected aminoacyl-pdCpA, 15% DMSO, and 100 units of T4 RNA ligase. The reaction mixture was incubated at 37° C. for 1.5 h and quenched by the addition of 0.1 vol of 3 M NaOAc, pH 5.2. The N-protected aminoacylated tRNA was precipitated with 3 vol of cold ethanol. The efficiency of ligation was estimated by 8% polyarylamide-7 M urea gel electrophoresis (pH 5.0).
The N-pentenoyl-protected aminoacyl-tRNACUAs were deprotected by treatment with 5 mM aqueous […] at 25° C. for 15 min. The solution was centrifuged, and the supernatant was adjusted to 0.3 M NaOAc and treated with 3 vol of cold ethanol to precipitate the aminoacylated tRNA. The tRNA pellet was collected by centrifugation, washed with 70% aq EtOH, air dried and dissolved in 20 μL of RNase free water.
Preparation of S-30 Extracts from Cells Having Modified Ribosomes. Aliquots (5-10 μL) from liquid stocks of E. coli BL-21 (DE-3) cells, harboring plasmids with a wild-type or modified rrnB gene, were placed on LB agar supplemented with 100 µg/mL of ampicillin and grown at 37° C. for 16-18 h. One colony was picked from each agar plate and transferred into 3 mL of LB medium supplemented with 100 μg/mL of ampicillin and 0.5 mM IPTG.
as §1
Incorporation of Dipeptides 2, 3 and 4 into DHFR Using the Modified Ribosomes. Initially, glycylphenylalanine (2) was chosen to screen the selected modified ribosomes for their ability to incorporate a dipeptide into DHFR. It was anticipated that minimal steric hindrance and more flexibility at the N-terminus of the dipeptide (a glycine residue) would enable optimal positioning of the amine for a nucleophilic attack in the PTC of the modified ribosomes. A modified DHFR construct, having a TAG codon in position 10 (pETDH10 plasmid) was used for the incorporation of glycylphenylalanine.
The suppression efficiencies were expressed relative to the wild-type DHFR synthesis. As a negative control, wild-type DHFR synthesis in the presence of nonacylated-tRNACUA was measured for each experiment. The amounts of DHFR produced were quantified with a phosphoimager, which monitored the incorporation of ^35S-methionine into DHFR. Using glycylphenylalanyl-tRNACUA, S-30 preparations having the modified ribosomes from clone groups 1, 2, 3 and 9 produced full length DHFR in ˜9% yields relative to the wild-type DHFR synthesis (Table 3). The modified ribosomes from clone groups 4-8 incorporated glycylphenylalanine (2) with low yields (˜2-4%). For dipeptide 2, best incorporation yields (up to 12%) were obtained by S-30 system having modified ribosomes from clone group 9 (2057AGUGAGA2063 and 2502AUCCGA2507).

wild-type ribosomes = assay: In vitro translation: suppression of UAG codon at position 10 of DHFR mRNA, S-30 preparation having wild-type ribosomes; assay type: biochemical, E. coli; conditions: compared to wild-type DHFR synthesis
Method: as §1
Incorporation of Glycylphenylalanine (2) Using the Wild-Type Ribosome. The wild-type ribosomes synthesize polypeptide chains by incorporating one α-L-amino acid at a time via one monoacylated tRNA for each corresponding codon in the mRNA transcript.^6 Ribosome mediated sequential incorporation of two amino acids for one codon using bisacylated tRNAs has not been reported to date. […]

COc1ccc(C[C@H](N)C(=O)NCC(=O)N[C@H]2[C@@H](O)[C@H](n3cnc4c(N(C)C)ncnc43)O[C@@H]2CO)cc1 [puromycin derivative 1, 9-[3″-Deoxy-3″-(O-methyl-(S)-tyrosylglycyl)-β-D-ribofuranosyl]-6-(N,N″ dimethylamino)purine]
Inhibition by Puromycin Derivative 1 (%) ([1]; Wild-type ribosomes): <1% | Inhibition by Puromycin Derivative 1 (%) ([1]; clone 010309R3 (clone group 1)): 63.2% | Inhibition by Puromycin Derivative 1 (%) ([1]; clone 010310R1 (clone group 4)): 52.9% | Inhibition by Puromycin Derivative 1 (%) ([1]; clone 010310R4 (clone group 2)): 52.9% | Inhibition by Puromycin Derivative 1 (%) ([1]; clone 010322 (clone group 1)): 77% | Inhibition by Puromycin Derivative 1 (%) ([1]; clone 010326R1 (clone group 5)): 50.4% | Inhibition by Puromycin Derivative 1 (%) ([1]; clone 010326R5 (clone group 3)): 50.4% | Inhibition by Puromycin Derivative 1 (%) ([1]; clone 010326R6 (clone group 1)): 50.4% | Inhibition by Puromycin Derivative 1 (%) ([1]; clone 010328R2 (clone group 5)): 77% | Inhibition by Puromycin Derivative 1 (%) ([1]; clone 010328R4 (clone group 1)): 61% | Inhibition by Puromycin Derivative 1 (%) ([1]; clone 040322 (clone group 6)): 54% | Inhibition by Puromycin Derivative 1 (%) ([1]; clone 040329 (clone group 7)): 54% | Inhibition by Puromycin Derivative 1 (%) ([1]; clone 040338 (clone group 8)): 56% | Inhibition by Puromycin Derivative 1 (%) ([1]; clone 080337 (clone group 9)): 51%

COc1ccc(-c2sc(CN)nc2C(=O)O)cc1 [dipeptidomimetic 7]
suppression yield (full length GFP) relative to wild-type GFP synthesis [2]: ~3.5%

N[C@@H](Cc1ccccc1)C(=O)NCC(=O)O [dipeptide 3, phenylalanylglycine] (H-Phe-Gly-OH)
Suppression efficiency in different S-30 systems, having modified ribosomes (%) ([3]; clone group 1): ~14% and 13.9 ± 1.7% | Suppression efficiency in different S-30 systems, having modified ribosomes (%) ([3]; clone group 2): ~12% and 10.6 ± 0.5% | Suppression efficiency in different S-30 systems, having modified ribosomes (%) ([3]; clone group 3): 10% and 12.7 ± 2.5% | Suppression efficiency in different S-30 systems, having modified ribosomes (%) ([3]; clone group 9): ~13% and 13.3 ± 2.5%

NCC(=O)N[C@@H](Cc1ccccc1)C(=O)O [dipeptide 2, glycylphenylalanine] (H-Gly-Phe-OH)
Suppression efficiency in different S-30 systems, having modified ribosomes (%) ([3]; clone group 1): ~9% and 8.4 ± 1.6% | Suppression efficiency in different S-30 systems, having modified ribosomes (%) ([3]; clone group 2): ~8% and 9.5 ± 0.5% | Suppression efficiency in different S-30 systems, having modified ribosomes (%) ([3]; clone group 3): 9% and 8.6 ± 1.5% | Suppression efficiency in different S-30 systems, having modified ribosomes (%) ([3]; clone group 4): 3.1 ± 0.2% | Suppression efficiency in different S-30 systems, having modified ribosomes (%) ([3]; clone group 5): 4.5 ± 0.7% | Suppression efficiency in different S-30 systems, having modified ribosomes (%) ([3]; clone group 6): 3.5% | Suppression efficiency in different S-30 systems, having modified ribosomes (%) ([3]; clone group 7): 2.1 ± 0.1% | Suppression efficiency in different S-30 systems, having modified ribosomes (%) ([3]; clone group 8): 2.2% | full length DHFR yield relative to the wild-type DHFR synthesis ([3]; clone groups 1, 2, 3 and 9, position 10 of DHFR): ~9% | incorporation yield relative to the wild-type DHFR synthesis ([3]; clone groups 4-8, position 10 of DHFR): 2-4% | suppression efficiency (wild-type ribosomes): ~2%

phenylalanylphenylalanyl [dipeptide 4]
Suppression efficiency in different S-30 systems, having modified ribosomes (%) ([3]; clone group 1): ~4%

Source: US11434492B2, “Ribosome-mediated incorporation of peptides and peptidomimetics” (Arizona Board of Regents on behalf of Arizona State …, priority 2015, dated 2022)
